Literature values in patent US20140256762A1, “ARTEMISININ-BASED COMBINATION THERAPY FOR TREATING VIRAL MEDIATED DISEASE” (priority 2012, published 2014).

Experiments:
[1] = background statement
[2] = background statement; remark: listed apart in the source

Solubility [1]	Structure (SMILES)	Genotoxic activity [2]	Toxicity ([2]; generally considered)
lipid-soluble	CO[C@H]1O[C@@H]2O[C@@]3(C)CC[C@H]4[C@H](C)CC[C@@H]([C@H]1C)[C@@]24OO3 [artemether, (+)-(3-alpha,5a-beta,6-beta,8a-beta, 9-alpha,12-beta,12aR)-decahydro-10-methoxy-3,6,9-trimethyl-3,12-epoxy-12H-pyrano(4,3-j)-1,2-benzodioxepin]	–	–
water-soluble	C[C@H]1[C@H](OC(=O)CCC(=O)O)O[C@@H]2O[C@@]3(C)CC[C@H]4[C@H](C)CC[C@@H]1[C@@]24OO3 [artesunate, 3R,5aS,6R,8aS,9R,10S,12R,12aR)-Decahydro-3,6,9-trimethyl-3,12-epoxy-12H-pyrano(4,3-j)-1,2-benzodioxepin-10-ol hydrogen succinate]	–	–
–	COc1ccc2cc3[n+](cc2c1OC)CCc1cc2c(cc1-3)OCO2 [Berberine, (5,6-Dihydro-9,10-dimethoxybenzo[g]-1,3-benzodioxolo[5,6-a]quinolizinium)]	no genotoxic activity	non-toxic

Structure (SMILES)	Solubility [1]	Genotoxic activity [2]	Toxicity ([2]; generally considered)
C[C@@H]1CC[C@H]2[C@@H](C)C(=O)O[C@@H]3O[C@@]4(C)CC[C@@H]1[C@]32OO4 [artemisinin]	sparingly soluble in either water or oils	–	–
